melting point | Structure (SMILES)
110 to 112.7 °C | COc1ccc([C@H]2NC(=O)c3cccc4c3N2CC[C@@H]4N)cc1 [Example 6, (−)-(3S,7S)-7-amino-3-(4-methoxyphenyl)-6,7-dihydro-3H,5H-pyrido[3,2,1-ij]quinazoline-1(2H)-one]
210.6 to 217.2 °C | O=C1NC(c2ccc(Cl)cc2)N2CCC(=NO)c3cccc1c32 (stereo not shown) [Example 78]
134 to 146.9 °C | N#Cc1ccc(C2NC(=O)c3cccc4c3N2CCC4=O)cc1 (stereo not shown) [Example 16, 3-(4-cyanophenyl)-6,7-dihydro-3H,5H-pyrido[3,2,1-ij]quinazoline-1,7(2H)-dione]
> 250 °C | N#Cc1ccc(C2NC(=O)c3cccc4c3N2CCC4=NO)cc1 (stereo not shown) [Example 74, 3-(4-cyanophenyl)-7-hydroxyimino-6,7-dihydro-3H,5H-pyrido[3,2,1-ij]quinazoline-1(2H)-one]
204.7 to 212.2 °C | COc1ccc(C2NC(=O)c3cccc4c3N2CCC4=O)cc1O (stereo not shown) [Example 28, 3-(3-hydroxy-4-methoxyphenyl)-6,7-dihydro-3H,5H-pyrido[3,2,1-ij]quinazoline-1,7(2H)-dione]
190 to 191.6 °C | O=C1CCN2c3c1cccc3C(=O)NC2c1cccnc1 (stereo not shown)
247.1 to 252.3 °C | O=C1NC(c2ccc(F)cc2)N2CCC(=NO)c3cccc1c32 (stereo not shown) [Example 76, 3-(4-fluorophenyl)-7-hydroxyimino-6,7-dihydro-3H,5H-pyrido[3,2,1-ij]quinazoline-1(2H)-one]
232.7 to 234.3 °C | COc1ccc(C2NC(=O)c3cc(OC(F)(F)F)cc4c3N2CCC4=NO)cc1 (stereo not shown) [Example 50, 7-hydroxyimino-3-(4-methoxyphenyl)-9-trifluoromethoxy-6,7-dihydro-3H,5H-pyrido[3,2,1-ij]quinazoline-1(2H)-one]
178.6 to 185.9 °C | CON=C1CCN2c3c(cccc31)C(=O)NC2c1cccnc1 (stereo not shown) [Example 67, 7-methoxyimino-3-(3-pyridyl)-6,7-dihydro-3H,5H-pyrido[3,2,1-ij]quinazoline-1(2H)-one]
209.4 to 213.1 °C | COc1ccc(C2NC(=O)c3ccc(Cl)c4c3N2CCC4=O)cc1 (stereo not shown) [Example 25, 8-chloro-3-(4-methoxyphenyl)-6,7-dihydro-3H,5H-pyrido[3,2,1-ij]quinazoline-1,7(2H)-dione]
198.6 to 203.3 °C | CCOC(=O)COc1ccc(C2NC(=O)c3cccc4c3N2CCC4=NO)cc1 (stereo not shown) [Example 59, 3-(4-ethoxycarbonylmethoxyphenyl)-7-hydroxyimino-6,7-dihydro-3H,5H-pyrido[3,2,1-ij]quinazoline-1(2H)-one]
184 to 189.6 °C | O=C1CCN2c3c1cccc3C(=O)NC2c1ccc(F)c(F)c1 (stereo not shown) [Example 20, 3-(3,4-difluorophenyl)-6,7-dihydro-3H,5H-pyrido[3,2,1-ij]quinazoline-1,7(2H)-dione]
236 to 243.3 °C | COc1ccc(C2NC(=O)c3cccc4c3N2CCC4=NO)cc1C (stereo not shown) [Example 57, 7-hydroxyimino-3-(3-methyl-4-methoxyphenyl)-6,7-dihydro-3H,5H-pyrido[3,2,1-ij]quinazoline-1(2H)-one]
212.8 to 215.7 °C | COc1ccc(C2NC(=O)c3cccc4c3N2CCC4=O)cc1Br (stereo not shown) [Example 27, 3-(3-bromo-4-methoxyphenyl)-6,7-dihydro-3H,5H-pyrido[3,2,1-ij]quinazoline-1,7(2H)-dione]
175.8 to 177.1 °C | CC(C)Oc1ccc(C2NC(=O)c3cccc4c3N2CCC4=O)cc1 (stereo not shown) [Example 37, 3-(4-isopropoxyphenyl)-6,7-dihydro-3H,5H-pyrido[3,2,1-ij]quinazoline-1,7(2H)-dione]
178.2 to 180.9 °C | O=C1CCN2c3c1cccc3C(=O)NC2c1ccc(SC(F)(F)F)cc1 (stereo not shown) [Example 45, 3-(4-trifluoromethylthiophenyl)-6,7-dihydro-3H,5H-pyrido[3,2,1-ij]quinazoline-1,7(2H)-dione]
190.9 to 193.4 °C | O=C1CCN2c3c1cccc3C(=O)NC2c1ccsc1 (stereo not shown) [Example 46, 3-(3-thienyl)-6,7-dihydro-3H,5H-pyrido[3,2,1-ij]quinazoline-1,7(2H)-dione]
220 to 224.7 °C | O=C1NC(c2ccc([N+](=O)[O-])cc2)N2CCC(=NO)c3cccc1c32 (stereo not shown) [Example 73, 7-hydroxyimino-3-(4-nitrophenyl)-6,7-dihydro-3H,5H-pyrido[3,2,1-ij]quinazoline-1(2H)-one]
215.4 to 219 °C | Cc1ccc(C2NC(=O)c3cccc4c3N2CCC4=NO)cc1 (stereo not shown) [Example 77, 7-hydroxyimino-3-(4-methylphenyl)-6,7-dihydro-3H,5H-pyrido[3,2,1-ij]quinazoline-1(2H)-one]

The remaining lines, values behind:

Structure (SMILES) | melting point
COc1ccc(C2NC(=O)c3cccc4c3N2CCC4O)cc1 (stereo not shown) [Example 2, 7-hydroxy-3-(4-methoxyphenyl)-6,7-dihydro-3H,5H-pyrido[3,2,1-ij]quinazoline-1(2H)-one] | 95.7 to 99.6 °C
COc1ccc(C2NC(=O)c3cccc4c3N2CCC4NC(=O)c2ccc(N(C)C)cc2)cc1 (stereo not shown) [Example 132, 7-(4-N,N-dimethylamino)benzoylamino-3-(4-methoxyphenyl)-6,7-dihydro-3H,5H-pyrido[3,2,1-ij]quinazoline-1(2H)-one] | 201.4 to 202.9 °C
COc1cc(C2NC(=O)c3cccc4c3N2CCC4=NO)ccc1O (stereo not shown) [Example 61, 7-hydroxyimino-3-(4-hydroxy-3-methoxyphenyl)-6,7-dihydro-3H,5H-pyrido[3,2,1-ij]quinazoline-1(2H)one] | 174.4 to 189.3 °C
COc1ccc(C2NC(=O)c3cccc4c3N2CCC4N(C)C)cc1 (stereo not shown) [Example 135, 7-dimethylamino-3-(4-methoxyphenyl)-6,7-dihydro-3H,5H-pyrido[3,2,1-ij]quinazoline-1(2H)-one] | 188.2 to 192.4 °C
NC1CCN2c3c(cccc31)C(=O)NC2c1ccc(C(=O)O)cc1 (stereo not shown) [Example 127, 7-amino-3-(4-carboxyphenyl)-6,7-dihydro-3H,5H-pyrido[3,2,1-ij]quinazolinone-1-(2H)-one] | 232.3 to 238.7 °C
COc1ccc(C2NC(=O)c3cccc4c3N2CCC4NC(=O)CCN2CCCCC2)cc1 (stereo not shown) [Example 133, 7-[3-(piperidine-1-yl)propanoyl]amino-3-(4-methoxyphenyl)-6,7-dihydro-3H,5H-pyrido[3,2,1-ij]quinazoline-1(2H)-one] | 186 to 187.2 °C
CON=C1CCN2c3c(cccc31)C(=O)NC2c1ccc(OC(C)C)cc1 (stereo not shown) [Example 64, 3-(4-isopropoxyphenyl)-7-methoxyimino-6,7-dihydro-3H,5H-pyrido[3,2,1-ij]quinazoline-1(2H)-one] | 167.4 to 168.9 °C
O=C1CCN2c3c1cccc3C(=O)NC2c1ccc(C(F)(F)F)cc1 (stereo not shown) [Example 35, 3-(4-trifluoromethylphenyl)-6,7-dihydro-3H,5H-pyrido[3,2,1-ij]quinazoline-1,7(2H)-dione] | 203.1 to 208 °C
CON=C1CCN2c3c(cccc31)C(=O)NC2c1ccc(OC)c(O)c1 (stereo not shown) [Example 55, 3-(3-hydroxy-4-methoxyphenyl)-7-methoxyimino-6,7-dihydro-3H,5H-pyrido[3,2,1-ij]quinazoline-1(2H)-one] | 185.3 to 189.8 °C
COc1ccc(C2NC(=O)c3cccc4c3N2CCC4NCc2ccc(N(C)C)cc2)cc1 (stereo not shown) [Example 13, 7-(4-N,N-dimethylaminophenyl)methylamino-3-(4-methoxyphenyl)-6,7-dihydro-3H,5H-pyrido[3,2,1-ij]quinazoline-1(2H)-one] | 73.2 to 75.6 °C
O=C1NC(c2ccc(OCCO)cc2)N2CCC(=NO)c3cccc1c32 (stereo not shown) [Example 60, 7-hydroxyimino-3-(4-hydroxyethoxyphenyl)-6,7-dihydro-3H,5H-pyrido[3,2,1-ij]quinazoline-1(2H)-one] | 183.9 to 186.3 °C
COc1ccc(C2NC(=O)c3cccc4c3N2CCC4=NO)cc1Cl (stereo not shown) [Example 70, 3-(3-chloro-4-methoxyphenyl)-7-hydroxyimino-3-6,7-dihydro-3H,5H-pyrido[3,2,1-ij]quinazoline-1(2H)-one] | 220 °C (dec.)
CN(C)CCCOc1ccc(C2NC(=O)c3cccc4c3N2CCC4=O)cc1 (stereo not shown) [Example 26, 3-(4-(3-N,N-dimethylaminopropoxy)phenyl)-6,7-dihydro-3H,5H-pyrido[3,2,1-ij]quinazoline-1,7(2H)-dione] | 174.3 to 178.2 °C
COc1ccc(C2NC(=O)c3cccc4c3N2CCC4=O)cc1Cl (stereo not shown) [Example 42, 3-(3-chloro-4-methoxyphenyl)-6,7-dihydro-3H,5H-pyrido[3,2,1-ij]quinazoline-1,7(2H)-dione] | 174.5 to 176.9 °C
O=C1NC(c2ccc(F)c(F)c2)N2CCC(=NO)c3cccc1c32 (stereo not shown) [Example 75, 3-(3,4-difluorophenyl)-7-hydroxyimino-6,7-dihydro-3H,5H-pyrido[3,2,1-ij]quinazoline-1(2H)-one] | 218.4 to 222.3 °C
COc1ccc(C2NC(=O)c3cccc4c3N2CCC4=NO)cc1 (stereo not shown) [Example 3, 7-hydroxyimino-3-(4-methoxyphenyl)-6,7-dihydro-3H,5H-pyrido[3,2,1-ij]quinazoline-1(2H)] | 200.8 to 211.9 °C
COc1ccc(C2NC(=O)c3cccc4c3N2CCC4=O)cc1[N+](=O)[O-] (stereo not shown) [Example 10, 3-(4-methoxy-3-nitrophenyl)-6,7-dihydro-1H,5H-pyrido[3,2,1-ij]quinazoline-1,7-(2H)-dione] | 275.4 to 277.1 °C
COc1cc(C2NC(=O)c3cccc4c3N2CCC4=NO)cc(Br)c1OC (stereo not shown) [Example 56, 3-(3-bromo-4,5-dimethoxyphenyl)-7-hydroxyimino-6,7-dihydro-3H,5H-pyrido[3,2,1-ij]quinazoline-1(2H)-one] | 133.9 to 146.8 °C
CON=C1CCN2c3c(cccc31)C(=O)NC2c1ccc([N+](=O)[O-])cc1 (stereo not shown) [Example 71, 7-methoxyimino-3-(4-nitrophenyl)-6,7-dihydro-3H,5H-pyrido[3,2,1-ij]quinazoline-1(2H)-one] | 112.9 to 116.4 °C
COc1ccc2cc(C3NC(=O)c4cccc5c4N3CCC5=O)ccc2c1 (stereo not shown) [Example 47, 3-(6-methoxynaphthalene-2-yl)-6,7-dihydro-3H,5H-pyrido[3,2,1-ij]quinazoline-1,7(2H)-dione] | 191.4 to 195.5 °C
COc1ccc(C2NC(=O)c3cccc4c3N2CCNC4=O)cc1 (stereo not shown) [Example 14, 3-(4-methoxyphenyl)-5,6-dihydro-3H-pyrimido[5,6,1-jk][1,4]benzdiazepin-1,8(2H,7H)-dione] | 279.9 °C (dec.)

Reference: US20060004028A1, “Novel PARP inhibitor” (MOCHIDA PHARMACEUTICAL CO., LTD., priority 2002, published 2006)
